From US12011444B2, “N-substituted indole derivatives as PGE2 receptor modulators” (Idorsia Pharmaceuticals Ltd, priority 2015, dated 2024) come the findings set out here.

SMILES strings stand for the structures.

For one assay, the target named is PTGER2 (EP2) (Homo sapiens (Human), UniProt P43116). In words: hEP2 b-arrestin assay (PathHunter HEK 293 PTGER2 b-arrestin cells). It counts as cell-based. The procedure, abridged: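 Readout is β-galactosidase complementation luminescence, expressed as percent of DMSO control (duplicates). PathHunter HEK293 EP2/β-arrestin 2 cells, grown 24 h, received compound for 15 min at 37 °C before a 120 min challenge with PGE2 at 5 μM final, followed by 1 h detection at room temperature.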
Sequence of PTGER2 (EP2) (P43116 whole entry): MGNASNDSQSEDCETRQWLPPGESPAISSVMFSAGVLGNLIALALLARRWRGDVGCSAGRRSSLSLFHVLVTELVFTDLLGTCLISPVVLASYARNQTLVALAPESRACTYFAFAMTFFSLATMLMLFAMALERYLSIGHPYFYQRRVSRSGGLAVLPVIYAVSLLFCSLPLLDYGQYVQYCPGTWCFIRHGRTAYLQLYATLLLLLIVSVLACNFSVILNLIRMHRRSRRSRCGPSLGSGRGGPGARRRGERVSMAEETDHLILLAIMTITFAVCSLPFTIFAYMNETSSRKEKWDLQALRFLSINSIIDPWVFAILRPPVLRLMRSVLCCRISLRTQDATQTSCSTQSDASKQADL

A further assay addresses PTRGER4 (EP4) (Homo sapiens (Human), UniProt P35408). Description: hEP4 b-arrestin assay (PathHunter HEK 293 PTGER4 b-arrestin cells). It counts as cell-based. The procedure, abridged:
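Antagonist mode: compound is given 15 min at 37 °C, then 20 nM (final) PGE2 for 120 min, in HEK293 cells stably expressing EP4 fused to ProLink and β-arrestin 2 fused to EA. Recruitment read as β-gal luminescence after 1 h reagent at room temperature, as percent of DMSO control.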

The mark [1] stands for this setting: antagonistic activity on hEP2, mean where measured multiple times.
Setting [2] is: antagonistic activity on hEP4, mean where measured multiple times.
Where [3] appears, read: hEP2 b-arrestin assay (values without asterisk).
[4] abbreviates: hEP4 b-arrestin assay (values without asterisk).

Sequence of PTRGER4 (EP4) (P35408 whole entry, looked up, the tested form may be a part): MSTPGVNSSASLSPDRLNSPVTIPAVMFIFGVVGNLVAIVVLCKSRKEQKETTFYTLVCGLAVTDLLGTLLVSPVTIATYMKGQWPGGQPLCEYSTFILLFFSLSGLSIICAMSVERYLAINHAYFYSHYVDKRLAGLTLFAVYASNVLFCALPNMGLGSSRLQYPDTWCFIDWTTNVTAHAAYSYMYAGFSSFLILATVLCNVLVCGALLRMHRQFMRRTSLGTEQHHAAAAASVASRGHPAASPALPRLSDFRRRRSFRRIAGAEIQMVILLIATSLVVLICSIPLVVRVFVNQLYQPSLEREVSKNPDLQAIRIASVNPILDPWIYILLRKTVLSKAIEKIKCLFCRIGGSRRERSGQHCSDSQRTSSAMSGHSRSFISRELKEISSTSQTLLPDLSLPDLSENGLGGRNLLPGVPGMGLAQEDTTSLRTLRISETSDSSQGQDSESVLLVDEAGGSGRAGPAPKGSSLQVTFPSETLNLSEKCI

With `Cc1ccc(F)c2c1cc(C)n2CCNc1cc(-c2ccc(C(=O)O)c(CC(C)C)c2)ncn1` [compound 336, 4-{6-[2-(7-Fluoro-2,4-dimethyl-indol-1-yl)-ethylamino]-pyrimidin-4-yl}-2-isobutyl-benzoic acid], the 50% inhibitory concentration (IC50) came out at 46 nM at PTGER2 (EP2) (setting [1]) and 199 nM at PTRGER4 (EP4) (setting [2]).
Consider `Cc1cc(F)c(F)c2c1cc(C)n2CCNc1cc(-c2ccc(-c3c[nH]cn3)cc2)ncn1` [compound 176, [2-(6,7-Difluoro-2,4-dimethyl-indol-1-yl)-ethyl]-{6-[4-(1H-imidazol-4-yl)-phenyl]-pyrimidin-4-yl}-amine], for which the IC50 is 36 nM against PTGER2 (EP2) (setting [1]) and 71 nM against PTRGER4 (EP4) (setting [2]).
As to `COc1cccc2c1cc(C)n2CCNc1cc(-c2ccc(CO)c(F)c2)ncn1` [compound 17, (2-Fluoro-4-{6-[2-(4-methoxy-2-methyl-indol-1-yl)-ethylamino]-pyrimidin-4-yl}-phenyl)-methanol], the IC50 at PTGER2 (EP2) (setting [1]) was determined as 12 nM; against PTRGER4 (EP4) (setting [2]), 174 nM.
As for `CCOc1cc(-c2cc(NCCn3c(C)cc4c(OC)c(F)cc(Cl)c43)ncn2)sc1C(=O)O` [Example 885, 5-{6-[2-(7-Chloro-5-fluoro-4-methoxy-2-methyl-indol-1-yl)-ethylamino]-pyrimidin-4-yl}-3-ethoxy-thiophene-2-carboxylic acid], the half-maximal inhibitory concentration (IC50) on PTGER2 (EP2) (setting [3]) came out at 40 nM; on PTRGER4 (EP4) (setting [4]), 89 nM.
Take `CCOc1cc(-c2cc(NCCn3c(C)cc4c(C)ccc(F)c43)ncn2)ccc1C(=O)O` [Example 158, 2-ethoxy-4-{6-[2-(7-fluoro-2,4-dimethyl-indol-1-yl)-ethylamino]-pyrimidin-4-yl}-benzoic acid]: the IC50 is 39 nM at PTGER2 (EP2) (setting [1]) and 163 nM against PTRGER4 (EP4) (setting [2]).
For `Cc1ccc(F)c2c1cc(C)n2CCNc1cc(-c2ccc(-c3noc(=O)[nH]3)cc2)ncn1` [compound 185, 3-(4-{6-[2-(7-Fluoro-2,4-dimethyl-indol-1-yl)-ethylamino]-pyrimidin-4-yl}-phenyl)-4H-[1,2,4]oxadiazol-5-one], in that order: 30 nM and 302 nM.
As to `COc1ccc(F)c2c1cc(C#N)n2CCNc1cc(-c2cccc(CCC(=O)O)c2)ncn1` [Example 1011, 3-(3-{6-[2-(2-Cyano-7-fluoro-4-methoxy-indol-1-yl)-ethylamino]-pyrimidin-4-yl}-phenyl)-propionic acid], the IC50 against PTGER2 (EP2) (setting [3]) is 120 nM; against PTRGER4 (EP4) (setting [4]), 228 nM.
For `COc1ccc(F)c2c1cc(C#N)n2CCNc1cc(-c2c(C)nn(C)c2C)ncn1` [Example 998, 7-Fluoro-4-methoxy-1-{2-[6-(1,3,5-trimethyl-1H-pyrazol-4-yl)-pyrimidin-4-ylamino]-ethyl}-1H-indole-2-carbonitrile], in that order: 48 nM and 686 nM.
For `COc1cccc2c1cc(C)n2CCNc1cc(-c2ccc3c(c2)C(C)NC3=O)ncn1` (racemic) [compound 86], the half-inhibitory concentration (IC50) was 12 nM on PTGER2 (EP2) (setting [1]) and 873 nM against PTRGER4 (EP4) (setting [2]).
With `CCSc1cc(-c2cc(NCCn3c(C)cc4c(Cl)ccc(Cl)c43)ncn2)ccc1C(=O)O` [compound 149, 4-{6-[2-(4,7-Dichloro-2-methyl-indol-1-yl)-ethylamino]-pyrimidin-4-yl}-2-ethylsulfanyl-benzoic acid], the IC50 came to 10 nM on PTGER2 (EP2) (setting [1]) and 605 nM at PTRGER4 (EP4) (setting [2]).
As for `CCOc1cc(-c2cc(NCCn3c(C#N)cc4c(OC)ccc(F)c43)ncn2)ccc1CCC(=O)O` [Example 924, 3-(4-{6-[2-(2-Cyano-7-fluoro-4-methoxy-indol-1-yl)-ethylamino]-pyrimidin-4-yl}-2-ethoxy-phenyl)-propionic acid], the IC50 against PTGER2 (EP2) (setting [3]) is 224 nM; against PTRGER4 (EP4) (setting [4]), 308 nM.
Consider `COc1cc(F)c(F)c2c1cc(C)n2CCNc1cc(-c2ccc(-c3ncno3)cc2)ncn1` [compound 299, [2-(6,7-Difluoro-4-methoxy-2-methyl-indol-1-yl)-ethyl]-[6-(4-[1,2,4]oxadiazol-5-yl-phenyl)-pyrimidin-4-yl]-amine], for which the IC50 against PTGER2 (EP2) (setting [1]) amounted to 10 nM; against PTRGER4 (EP4) (setting [2]), 81 nM.
Consider `COc1ccc(F)c2c1cc(C#N)n2CCNc1cc(-c2c[nH]c3ccccc23)ncn1` [Example 968, 7-Fluoro-1-{2-[6-(1H-indol-3-yl)-pyrimidin-4-ylamino]-ethyl)-4-methoxy-1H-indole-2-carbonitrile], for which the IC50 worked out at 4 nM against PTGER2 (EP2) (setting [3]) and 15 nM at PTRGER4 (EP4) (setting [4]).
With `N#Cc1cc2c(Cl)cc(Cl)cc2n1CCNc1cc(-c2cc(F)c(C(=O)O)s2)ncn1` [Example 850, 5-{6-[2-(4,6-Dichloro-2-cyano-indol-1-yl)-ethylamino]-pyrimidin-4-yl}-3-fluoro-thiophene-2-carboxylic acid], the figures for the half-inhibitory concentration (IC50) against PTGER2 (EP2) (setting [3]) and against PTRGER4 (EP4) (setting [4]) were 2 nM and 79 nM, respectively.
For `COc1cc(F)cc2c1cc(C)n2CCNc1cc(-c2ccc(-c3ccns3)cc2)ncn1` [compound 205, [2-(6-Fluoro-4-methoxy-2-methyl-indol-1-yl)-ethyl]-[6-(4-isothiazol-5-yl-phenyl)-pyrimidin-4-yl]-amine], the results for the half-inhibitory concentration (IC50) on PTGER2 (EP2) (setting [1]) and at PTRGER4 (EP4) (setting [2]) were 44 nM and 334 nM, respectively.
Consider `COc1ccc(F)c2c1cc(C)n2CCNc1cc(-c2nc(C(C)(C)C)c(C(=O)O)s2)ncn1` [Example 1038, 4-tert-Butyl-2-{6-[2-(7-fluoro-4-methoxy-2-methyl-indol-1-yl)-ethylamino]-pyrimidin-4-yl}-thiazole-5-carboxylic acid], for which the half-maximal inhibitory concentration (IC50) on PTGER2 (EP2) (setting [3]) came to 64 nM; at PTRGER4 (EP4) (setting [4]), 20 nM.
On to `COc1ccc(F)c2c1cc(C#N)n2CCNc1cc(-c2ccc(O)c(Cl)c2)ncn1` [Example 867, 1-{2-[6-(3-Chloro-4-hydroxy-phenyl)-pyrimidin-4-ylamino]-ethyl}-7-fluoro-4-methoxy-1H-indole-2-carbonitrile], for which the IC50 came to 8 nM against PTGER2 (EP2) (setting [3]) and 6 nM at PTRGER4 (EP4) (setting [4]).
On to `CCc1cc(-c2cc(NCCn3c(C)cc4c(OC)ccc(F)c43)ncn2)ccc1C(=O)O` [compound 290], for which the IC50 on PTGER2 (EP2) (setting [1]) is 28 nM; on PTRGER4 (EP4) (setting [2]), 102 nM.
`COc1cc(F)cc2c1cc(C)n2CCNc1cc(-c2cc(Cl)c(C(=O)O)s2)ncn1` [compound 38, 3-Chloro-5-{6-[2-(6-fluoro-4-methoxy-2-methyl-indol-1-yl)-ethylamino]-pyrimidin-4-yl}-thiophene-2-carboxylic acid]: the IC50 against PTGER2 (EP2) (setting [1]) turned out to be 5 nM; against PTRGER4 (EP4) (setting [2]), 39 nM.
The matching figures for `COc1cc(-c2cc(NCCn3c(C)cc4c(C)ccc(F)c43)ncn2)ccc1C(=O)O` [compound 129, 4-{6-[2-(7-Fluoro-2,4-dimethyl-indol-1-yl)-ethylamino]-pyrimidin-4-yl}-2-methoxy-benzoic acid]: 48 nM and 622 nM.
The matching figures for `CCOc1cc(-c2cc(NCCn3c(C)cc4c(Cl)cccc43)ncn2)sc1C(=O)O` [compound 108]: 1 nM and 15 nM.
Regarding `COc1ccc(F)c2c1cc(C#N)n2CCNc1cc(-c2ccc(C(N)=O)s2)ncn1` [Example 900, 5-{6-[2-(2-Cyano-7-fluoro-4-methoxy-indol-1-yl)-ethylamino]-pyrimidin-4-yl)-thiophene-2-carboxylic acid amide], the values for the IC50 at PTGER2 (EP2) (setting [3]) and at PTRGER4 (EP4) (setting [4]) were 26 nM and 22 nM, respectively.
`CCOc1cc(-c2cc(NCCn3c(C#N)cc4c(OC)cc(F)cc43)ncn2)sc1C(=O)O` [compound 391]: the IC50 on PTGER2 (EP2) (setting [1]) is 2 nM; at PTRGER4 (EP4) (setting [2]) it was 3 nM.
For `COc1cccc2c1cc(C)n2CCNc1cc(-c2ccc(Cn3cccn3)c(F)c2)ncn1` [compound 308], the half-maximal inhibitory concentration (IC50) against PTGER2 (EP2) (setting [1]) amounted to 383 nM; against PTRGER4 (EP4) (setting [2]) it was 429 nM.
On to `CCOc1cc(-c2cc(NCCn3c(C)cc4c(OC)cccc43)ncn2)ccc1CO` [compound 127, (2-Ethoxy-4-{6-[2-(4-methoxy-2-methyl-indol-1-yl)-ethylamino]-pyrimidin-4-yl}-phenyl)-methanol], for which the half-inhibitory concentration (IC50) was determined as 4 nM against PTGER2 (EP2) (setting [1]) and 192 nM on PTRGER4 (EP4) (setting [2]).
As for `CCOc1cc(-c2cc(NCCn3c(C#N)cc4c(Cl)cc(F)c(F)c43)ncn2)ccc1NCC(=O)O` [Example 916, (4-{6-[2-(4-Chloro-2-cyano-6,7-difluoro-indol-1-yl)-ethylamino]-pyrimidin-4-yl}-2-ethoxy-phenylamino)-acetic acid], the IC50 turned out to be 20 nM against PTGER2 (EP2) (setting [3]) and 18 nM at PTRGER4 (EP4) (setting [4]).
As for `COc1ccc(Cl)c2c1cc(C)n2CCNc1cc(-c2ccc3c(c2)CCN3)ncn1` [compound 66, [2-(7-Chloro-4-methoxy-2-methyl-indol-1-yl)-ethyl]-[6-(2,3-dihydro-1H-indol-5-yl)-pyrimidin-4-yl]-amine], the results for the IC50 on PTGER2 (EP2) (setting [1]) and at PTRGER4 (EP4) (setting [2]) were 21 nM and 189 nM, respectively.
Consider `CCOc1cc(-c2cc(NCCn3c(C)cc4c(OC)ccc(F)c43)ncn2)ccc1NC(C)C(=O)O` (racemic) [Example 839, rac-2-(2-Ethoxy-4-{6-[2-(7-fluoro-4-methoxy-2-methyl-indol-1-yl)-ethylamino]-pyrimidin-4-yl}-phenylamino)-propionic acid], for which the figures for the IC50 against PTGER2 (EP2) (setting [3]) and at PTRGER4 (EP4) (setting [4]) were 3 nM and 44 nM, respectively.
On to `COc1cccc2c1cc(C)n2CCNc1cc(-c2ccc3c(c2)CCN3)ncn1` [compound 12, [6-(2,3-Dihydro-1H-indol-5-yl)-pyrimidin-4-yl]-[2-(4-methoxy-2-methyl-indol-1-yl)-ethyl]-amine], for which the 50% inhibitory concentration (IC50) against PTGER2 (EP2) (setting [1]) worked out at 11 nM; on PTRGER4 (EP4) (setting [2]), 144 nM.
In the case of `COc1ccc(F)c2c1cc(C)n2CCNc1cc(-c2csc(CO)c2)ncn1` [compound 101], the results for the IC50 on PTGER2 (EP2) (setting [1]) and against PTRGER4 (EP4) (setting [2]) were 37 nM and 548 nM, respectively.
`COc1ccc(F)c2c1cc(C)n2CCNc1cc(-c2cc(C)c(C(=O)O)s2)ncn1` [compound 107]: the concentration for half-maximal inhibition (IC50) at PTGER2 (EP2) (setting [1]) worked out at 5 nM; against PTRGER4 (EP4) (setting [2]), 46 nM.

One may read the IC50 as the concentration that inhibits the measured activity by half. The low end stands for inhibition by little substance, the high end for a need for much substance.
